biological target: T1, full length active recombinant SYK enzyme (Homo sapiens, UniProt P43405); test: Inhibition of Syk tyrosine phosphorylation activity (LANCE TR-FRET kinase assay); type: biochemical; details: 1 nM active SYK enzyme, 550 nM SYK-substrate, 100 μM ATP, 1 hour at room temperature
T1 construct: full length active recombinant SYK enzyme (Millipore, Calif.); purchased Millipore

| Structure (SMILES) | IC50 [nM] |
| --- | --- |
| CC[C@@H](Nc1nnc(C(N)=O)c(Nc2ccccc2)n1)C(N)=O [Example 99, (R)-3-((1-amino-1-oxobutan-2-yl)amino)-5-(phenylamino)-1,2,4-triazine-6-carboxamide] | 100 to 1000 |
| Cn1ncc2c(Nc3nc(N[C@@H]4CCCC[C@@H]4N)nnc3C(N)=O)ccnc21 [Example 104, 3-(((1R,2S)-2-aminocyclohexyl)amino)-5-((1-methyl-1H-pyrazolo[3,4-b]pyridin-4-yl)amino)-1,2,4-triazine-6-carboxamide] | 10 to 100 |
| NC(=O)c1nnc(N[C@@H]2CCCC[C@@H]2N)nc1Nc1ccc(-n2cncn2)cc1 [Example 106, 5-((4-(1H-1,2,4-triazol-1-yl)phenyl)amino)-3-(((1R,2S)-2-aminocyclohexyl)amino)-1,2,4-triazine-6-carboxamide] | 10 to 100 |
| CC[C@@H](Nc1nnc(C(N)=O)c(Nc2cccc3c2cnn3C)n1)C(N)=O [Example 107, (R)-3-((1-amino-1-oxobutan-2-yl)amino)-5-((1-methyl-1H-indazol-4-yl)amino)-1,2,4-triazine-6-carboxamide] | 10 to 100 |
| CC(C)C[C@@H](Nc1nnc(C(N)=O)c(Nc2cccc3c2cnn3C)n1)C(N)=O [Example 108, (R)-3-((1-amino-4-methyl-1-oxopentan-2-yl)amino)-5-((1-methyl-1H-indazol-4-yl)amino)-1,2,4-triazine-6-carboxamide] | 10 to 100 |
| CC[C@@H](Nc1nnc(C(N)=O)c(Nc2ccc3c(cnn3C)c2)n1)C(N)=O [Example 110, (R)-3-((1-amino-1-oxobutan-2-yl)amino)-5-((1-methyl-1H-indazol-5-yl)amino)-1,2,4-triazine-6-carboxamide] | 10 to 100 |
| CC[C@@H](Nc1nnc(C(N)=O)c(Nc2ccc(OC)c(C(F)(F)F)c2)n1)C(N)=O [Example 112, (R)-3-((1-amino-1-oxobutan-2-yl)amino)-5-((4-methoxy-3-(trifluoromethyl)phenyl)amino)-1,2,4-triazine-6-carboxamide] | 100 to 1000 |
| COc1ccc(Nc2nc(N[C@H](CC(C)C)C(N)=O)nnc2C(N)=O)cc1C(F)(F)F [Example 113, (R)-3-((1-amino-4-methyl-1-oxopentan-2-yl)amino)-5-((4-methoxy-3-(trifluoromethyl)phenyl)amino)-1,2,4-triazine-6-carboxamide] | 10 to 100 |
| N#Cc1ccccc1Nc1nc(N[C@@H]2CCCC[C@@H]2N)nnc1C(N)=O [Example 115, 3-(((1R,2S)-2-aminocyclohexyl)amino)-5-((2-cyanophenyl)amino)-1,2,4-triazine-6-carboxamide] | 100 to 1000 |
| N#Cc1ccc(Nc2nc(N[C@@H]3CCCC[C@@H]3N)nnc2C(N)=O)cc1F [Example 116, 3-(((1R,2S)-2-aminocyclohexyl)amino)-5-((4-cyano-3-fluorophenyl)amino)-1,2,4-triazine-6-carboxamide] | 10 to 100 |
| Cn1ncc2c(Nc3nc(N[C@@H]4CCCC(F)(F)[C@@H]4N)nnc3C(N)=O)cccc21 [Example 117, 3-(((1R,2R)-2-amino-3,3-difluorocyclohexyl)amino)-5-((1-methyl-1H-indazol-4-yl)amino)-1,2,4-triazine-6-carboxamide] | 10 to 100 |
| Cc1cccc(Nc2nc(N[C@H](CC(C)C)C(N)=O)nnc2C(N)=O)c1 [Example 120, (R)-3-((1-amino-4-methyl-1-oxopentan-2-yl)amino)-5-(m-tolylamino)-1,2,4-triazine-6-carboxamide] | 10 to 100 |
| Cc1ccc(Nc2nc(N[C@H](CC(C)C)C(N)=O)nnc2C(N)=O)cc1 [Example 121, (R)-3-((1-amino-4-methyl-1-oxopentan-2-yl)amino)-5-(p-tolylamino)-1,2,4-triazine-6-carboxamide] | 10 to 100 |
| NC(=O)c1nnc(N[C@@H]2CCCC[C@@H]2N)nc1Nc1cnc2ccc(F)cc2c1 [Example 122, 3-(((1R,2S)-2-aminocyclohexyl)amino)-5-((6-fluoroquinolin-3-yl)amino)-1,2,4-triazine-6-carboxamide] | 10 to 100 |
| CC[C@@H](Nc1nnc(C(N)=O)c(Nc2cnc3ccc(F)cc3c2)n1)C(N)=O [Example 123, (R)-3-((1-amino-1-oxobutan-2-yl)amino)-5-((6-fluoroquinolin-3-yl)amino)-1,2,4-triazine-6-carboxamide] | 10 to 100 |
| NC(=O)c1nnc(N[C@@H]2CCCC[C@@H]2N)nc1Nc1cc(-c2ccc(F)cc2)on1 [Example 127, 3-(((1R,2S)-2-aminocyclohexyl)amino)-5-((5-(4-fluorophenyl)isoxazol-3-yl)amino)-1,2,4-triazine-6-carboxamide] | 100 to 1000 |

Now from value to molecule:

| IC50 [nM] | Structure (SMILES) |
| --- | --- |
| 1 to 10 | Cn1ccc2c(Nc3nc(N[C@@H]4CCCC(F)(F)[C@@H]4N)nnc3C(N)=O)cccc21 [Example 94, 3-(((1R,2R)-2-amino-3,3-difluorocyclohexyl)amino)-5-((1-methyl-1H-indol-4-yl)amino)-1,2,4-triazine-6-carboxamide] |
| 10 to 100 | NC(=O)c1nnc(N[C@@H]2CCOC[C@@H]2N)nc1Nc1ccccc1 [Example 95, 3-(((3R,4R)-3-aminotetrahydro-2H-pyran-4-yl)amino)-5-(phenylamino)-1,2,4-triazine-6-carboxamide] |
| 10 to 100 | NC(=O)c1nnc(N[C@@H]2CCCC(F)(F)[C@@H]2N)nc1Nc1ccccc1 [Example 96, 3-(((1R,2R)-2-amino-3,3-difluorocyclohexyl)amino)-5-(phenylamino)-1,2,4-triazine-6-carboxamide] |
| 10 to 100 | NC(=O)c1nnc(N[C@@H]2CCCC[C@@H]2N)nc1Nc1ccc(-n2nccn2)cc1 [Example 97, 5-((4-(2H-1,2,3-triazol-2-yl)phenyl)amino)-3-(((1R,2S)-2-aminocyclohexyl)amino)-1,2,4-triazine-6-carboxamide] |
| 10 to 100 | CC[C@@H](Nc1nnc(C(N)=O)c(Nc2ccc(-n3nccn3)cc2)n1)C(N)=O [Example 98, (R)-5-((4-(2H-1,2,3-triazol-2-yl)phenyl)amino)-3-((1-amino-1-oxobutan-2-yl)amino)-1,2,4-triazine-6-carboxamide] |
| 10 to 100 | NC(=O)c1nnc(N[C@@H]2CCCC[C@@H]2N)nc1Nc1cccnc1 [Example 100, 3-(((1R,2S)-2-aminocyclohexyl)amino)-5-(pyridin-3-ylamino)-1,2,4-triazine-6-carboxamide] |
| 10 to 100 | Cc1cc(Nc2nc(N[C@@H]3CCCC[C@@H]3N)nnc2C(N)=O)sn1 [Example 101, 3-(((1R,2S)-2-aminocyclohexyl)amino)-5-((3-methylisothiazol-5-yl)amino)-1,2,4-triazine-6-carboxamide] |
| 1 to 10 | CC[C@@H](Nc1nnc(C(N)=O)c(Nc2ccc3cc[nH]c3c2)n1)C(N)=O [Example 102, (R)-5-((1H-indol-6-yl)amino)-3-((1-amino-1-oxobutan-2-yl)amino)-1,2,4-triazine-6-carboxamide] |
| 1 to 10 | CC(C)C[C@@H](Nc1nnc(C(N)=O)c(Nc2ccc3cc[nH]c3c2)n1)C(N)=O [Example 103, (R)-5-((1H-indol-6-yl)amino)-3-((1-amino-4-methyl-1-oxopentan-2-yl)amino)-1,2,4-triazine-6-carboxamide] |
| 1 to 10 | Cn1ncc2c(Nc3nc(N[C@@H]4CCCC[C@@H]4N)nnc3C(N)=O)cccc21 [Example 105, 3-(((1R,2S)-2-aminocyclohexyl)amino)-5-((1-methyl-1H-indazol-4-yl)amino)-1,2,4-triazine-6-carboxamide] |
| 1 to 10 | Cn1ncc2cc(Nc3nc(N[C@@H]4CCCC[C@@H]4N)nnc3C(N)=O)ccc21 [Example 109, 3-(((1R,2S)-2-aminocyclohexyl)amino)-5-((1-methyl-1H-indazol-5-yl)amino)-1,2,4-triazine-6-carboxamide] |
| 1 to 10 | CC(C)C[C@@H](Nc1nnc(C(N)=O)c(Nc2ccc3c(cnn3C)c2)n1)C(N)=O [Example 111, (R)-3-((1-amino-4-methyl-1-oxopentan-2-yl)amino)-5-((1-methyl-1H-indazol-5-yl)amino)-1,2,4-triazine-6-carboxamide] |
| 1 to 10 | COc1ccc(Nc2nc(N[C@@H]3CCCC[C@@H]3N)nnc2C(N)=O)cc1C(F)(F)F [Example 114, 3-(((1R,2S)-2-aminocyclohexyl)amino)-5-((4-methoxy-3-(trifluoromethyl)phenyl)amino)-1,2,4-triazine-6-carboxamide] |
| 1 to 10 | Cn1ccc2cc(Nc3nc(N[C@@H]4CCCC[C@@H]4N)nnc3C(N)=O)ccc21 [Example 118, 3-(((1R,2S)-2-aminocyclohexyl)amino)-5-((1-methyl-1H-indol-5-yl)amino)-1,2,4-triazine-6-carboxamide] |
| 1 to 10 | Cn1ccc2ccc(Nc3nc(N[C@@H]4CCCC[C@@H]4N)nnc3C(N)=O)cc21 [Example 119, 3-(((1R,2S)-2-aminocyclohexyl)amino)-5-((1-methyl-1H-indol-6-yl)amino)-1,2,4-triazine-6-carboxamide] |
| 1 to 10 | NC(=O)c1nnc(N[C@@H]2CCCC[C@@H]2N)nc1Nc1cccc(OC(F)F)c1 [Example 124, 3-(((1R,2S)-2-aminocyclohexyl)amino)-5-((3-(difluoromethoxy)phenyl)amino)-1,2,4-triazine-6-carboxamide] |
| 1 to 10 | COc1ccc(Nc2nc(N[C@@H]3CCCC[C@@H]3N)nnc2C(N)=O)cc1Cl [Example 125, 3-(((1R,2S)-2-aminocyclohexyl)amino)-5-((3-chloro-4-methoxyphenyl)amino)-1,2,4-triazine-6-carboxamide] |
| < 1 | NC(=O)c1nnc(N[C@@H]2CCCC[C@@H]2N)nc1Nc1ccc2cn[nH]c2c1 [Example 126, 5-((1H-indazol-6-yl)amino)-3-(((1R,2S)-2-aminocyclohexyl)amino)-1,2,4-triazine-6-carboxamide] |
| 1 to 10 | CC[C@@H](Nc1nnc(C(N)=O)c(Nc2ccc3cn[nH]c3c2)n1)C(N)=O [Example 128, (R)-5-((1H-indazol-6-yl)amino)-3-((1-amino-1-oxobutan-2-yl)amino)-1,2,4-triazine-6-carboxamide] |

From patent US9040530B2, “1,2,4-triazine-6-carboxamide kinase inhibitors” (Portola Pharmaceuticals, Inc., priority 2012, dated 2015)
